“Also recorded” adds a separate entry of the source.
Columns and labels:
[1] = system: rat articular chondrocytes; assay: Cell viability assay (automated trypan blue exclusion); format: cell-based; conditions: n=4
Description: Rat articular chondrocytes for primary culture were isolated from knee joint cartilage slices by enzymatic digestion for 1 h with 0.2% type II collagenase (381 units/mg) in DMEM. After the isolated cells were collected by brief centrifugation, they were resuspended in DMEM supplemented with 10% (v/v) FBS, […] streptomycin and 50 units/ml penicillin (Gibco). The cells were plated on culture dishes at a density of 5×10^4 cells/cm^2. The medium was replaced every 2 days, and they reached confluence after approximately 5 days in culture. In each experiment, the cells from three animals were pooled and analyzed three times.
FFA were dissolved in absolute ethanol at a concentration of 500 mM and diluted to final concentrations of FFAs with the appropriate concentration of 1% (w/v) FFA-free BSA. Controls were incubated with equal concentrations of FFA-free BSA containing ethanol. To examine the effect of several chemicals, cells were pretreated with 150 μg/mL DRB or 30 μM cilostazol for 24 h or 25 ng/ml TNF-α for 3 h before FFA treatment.
siRNA transfection or combination treatment with FFAs. Transfection of siRNA was performed with the use of siPORT Amine and Opti-MEM media. Cells grown to a confluence of 40% to 50% in six-well plates were transfected with 100 nM final siRNA concentration per well. Transfection mixture was added to each well, and incubation occurred for 4 h. Then 2 ml of growth medium was added, and cells were incubated for another 20 h. After siRNA transfection medium was removed, each well was washed in PBS solution. Cells were treated with FFAs for 24 hours.
Recombinant adenoviral STAMP2 was prepared as described previously34. Cells (1×10^7) were infected with recombinant adenoviral STAMP2 at multiplicities of infection (MOI) of 500, 1000 and 1500 to the medium.
An automated trypan blue exclusion assay was undertaken. Total cells and trypan bluestained (i.e., nonviable) cells were counted, and the percentage of nonviable cells was calculated using the Vi-Cell cell counter (Beckman Coulter, Miami, Fla., USA).

[2] = system: rat articular chondrocytes; assay: Total cytosol FFA content measurement; format: cell-based; conditions: cells treated with 1.6 mM palmitate and 0.4 mM oleate; n=4
Description: Cell were collected after treatment with trypsin (0.2% trypsin, 0.02% EDTA and 0.2% glucose in PBS) and pelleted by centrifugation (200×g for 5 min at 4° C.). Cell pellet was resuspended in ice-cold hypotonic lysis medium containing 20 mM Tris-HCl, pH 7.4 and 1 mM EDTA. Cells were homogenized with a Dounce homogenizer and then centrifuged (800×g for 5 min at 4° C.). The post-nuclear supernatant fraction was ultra-centrifuged ([…] for 5 min at 4° C.) using Beckman Table-top ultracentrifuge. LD fraction with the distinct white band on the preparation was removed with a pipetman and LD-free cytosol was used for FFA measurement. Cytosol FFA levels were measured using a commercial free fatty acid quantification kit from Abcam (ab65341).

[3] = system: PKCK2; assay: Immunohistochemistry of cartilage, PKCK2-positive cells, HFD-induced OA mouse model; format: in vivo; conditions: mice fed HFD, cilostazol 30 mg/kg/day orally 10 weeks; n=10
Description: (§1) HFD-induced OA mouse model. Sixty mice were fed a normal chow diet for one week and then mice were fed an HFD or a SD for 25 weeks. Ten mice from each diet were used histologically examine the effect of high fat diet. Forty mice were used to examine the effect of cilostazol. Mice fed a SD or HFD for 15 weeks were orally administered cilostazol at concentrations of 30 mg/kg/day for additional 10 weeks. SD+vehicle mice (n=10) were fed a SD and received DMSO. SD+cilostazol mice (n=10) were fed a SD and received cilostazol. HFD+vehicle mice (n=10) were fed a HFD and received DMSO. HFD+cilostazol mice (n=10) were fed a HFD and received cilostazol. Immunohistochemical observation and analysis. Tissue sections were incubated in 1:70-diluted goat serum solution for 30 minutes at room temperature, and then for 2 hours with 1:100-diluted primary antibody at room temperature. Next, sections were incubated with secondary antibody for 1 hour at 37° C. and developed using ABC complex. […] Histological images were observed and analyzed using a Aperio ScanScope® CS system. Total numbers of positive for […]27 and STAMP2 in four fields per animal were counted by an observer blinded to the experiment and the percentage of positive cells were calculated.

[4] = system: STAMP2; assay: Western blot of STAMP2 protein in articular chondrocytes; format: cell-based, rat; conditions: 30 μM cilostazol, 1.5 mM oleate; n=4
Description: Rat articular chondrocytes for primary culture were isolated from knee joint cartilage slices by enzymatic digestion for 1 h with 0.2% type II collagenase (381 units/mg) in DMEM. After the isolated cells were collected by brief centrifugation, they were resuspended in DMEM supplemented with 10% (v/v) FBS, […] streptomycin and 50 units/ml penicillin (Gibco). The cells were plated on culture dishes at a density of 5×10^4 cells/cm^2. The medium was replaced every 2 days, and they reached confluence after approximately 5 days in culture. In each experiment, the cells from three animals were pooled and analyzed three times. FFA were dissolved in absolute ethanol at a concentration of 500 mM and diluted to final concentrations of FFAs with the appropriate concentration of 1% (w/v) FFA-free BSA. Controls were incubated with equal concentrations of FFA-free BSA containing ethanol. […] Cell (2×10^6) were washed twice with ice-cold PBS. Cells were resuspended in lysis buffer [200 ll of icecold solubilizing buffer (300 mM NaCl, 50 mM Tris-Cl (pH 7.6), 0.5% Triton X-100, protease inhibitor cocktail)] and incubated at 4° C. for 30 min. The lysates were centrifuged at 14,000 rpm for 20 min at 4° C. The protein concentrations of the cell lysates were measured with the Bradford protein assay reagent (Bio-Rad). Then, 50 μg of proteins was loaded onto 15 SDS-PAGE. The separated proteins were transferred to nitrocellulose membranes (Amersham Pharmacia Biotech, Piscataway, N.J., USA) and probed with each antibody. Immunostaining with the antibodies was carried out using the Super Signal West Pico enhanced chemiluminescence substrate and detected with LAS-3000PLUS.

[5] = system: STAMP2; assay: Immunohistochemistry of cartilage, STAMP2-positive cells, HFD-induced OA mouse model; format: in vivo; conditions: mice fed HFD, cilostazol 30 mg/kg/day orally 10 weeks; n=10
Description: as §1

[6] = system: FSP27; assay: Immunohistochemistry of cartilage, FSP27-positive cells, HFD-induced OA mouse model; format: in vivo; design: reference not given here; conditions: mice fed HFD, cilostazol 30 mg/kg/day orally 10 weeks; n=10
Description: as §1

With O=C1CCc2cc(OCCCCc3nnnn3C3CCCCC3)ccc2N1 [cilostazol] the “influence on lipotoxicity of oleate/palmitate combination (viability)” value ([1]; 0.4 mM oleate with 0.6 or 1.6 mM palmitate) was “reciprocal influences on lipotoxicity”, the “effect on oleate-induced cell death (viability)” value ([1]; cilostazol pre-treatment, 1.5 mM oleate) was “prevented 1.5 mM oleate-induced cell death” and the “FFA level in the cytosol” value [2] was “significantly decreased the FFA level in the cytosol”. For the same molecule, the “population of PKCK2-positive cells” value [3] was “significantly increased”, the “effect on oleate-induced downregulation of STAMP2” value [4] was “completely reversed the downregulation of STAMP2 induced by oleate; also recorded: reversed the 1.5 mM oleate (O)-induced downregulation of STAMP2” and the “population of STAMP2-positive cells” value [5] was “significantly increased”. For the same molecule, the “population of FSP27-positive cells” value [6] was “significantly increased”.

Source: patent publication US20180369327A1, “METHOD FOR TREATING OR PREVENTING OSTEOARTHRITIS” (Dong-A University Research Foundation for Industry-Academy …, priority 2017, published 2018)
